# Measured values reported in patent US4868321A, “Isothiocyanate intermediates” (FMC Corporation, priority 1988, dated 1989).
# Assays:
# Format in all cases: in vivo
# Morningglory [1] = test: Preemergence Herbicidal Activity, Morningglory; settings: Ipomoea, pre-emergence; for pest or weed control at 500 g/ha: 0.5 kg/ha
# Outline: (§1)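 Pre-/postemergence screen; compound typically dissolved in acetone/water 50/50; dose in kg/ha; read-out = % control.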
# Soybean [2] = test: Postemergence Herbicidal Activity, Soybean; settings: Glycine max, post-emergence; for plant injury at 500 g/ha: 0.5 kg/ha
# Outline: (§2)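 Efficacy is recorded as percent control at each application rate, expressed in kg/ha.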
# Rice [3] = test: Preemergence Herbicidal Activity, Rice; settings: Oryza sativa, pre-emergence; for plant injury at 500 g/ha: 0.5 kg/ha
# Outline: as §2
# Barnyardgrass [4] = test: Preemergence Herbicidal Activity, Barnyardgrass; settings: Echinochloa crus-galli, pre-emergence; for pest or weed control at 500 g/ha: 0.5 kg/ha
# Outline: (§3)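 Herbicidal response was graded as percent control. Compound rates were in kg/ha.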
# Wheat [5] = test: Preemergence Herbicidal Activity, Wheat; settings: Triticum aestivum, pre-emergence; for plant injury at 500 g/ha: 0.5 kg/ha
# Outline: as §2
# Barnyardgrass [6] = test: Postemergence Herbicidal Activity, Barnyardgrass; settings: Echinochloa crus-galli, post-emergence; for pest or weed control at 500 g/ha: 0.5 kg/ha
# Outline: as §3
# Johnsongrass [7] = test: Preemergence Herbicidal Activity, Johnsongrass; settings: Sorghum halepense, pre-emergence; for pest or weed control at 500 g/ha: 0.5 kg/ha
# Outline: as §3
# Velvetleaf [8] = test: Preemergence Herbicidal Activity, Velvetleaf; settings: Abutilon theophrasti, pre-emergence; for pest or weed control at 500 g/ha: 0.5 kg/ha
# Outline: as §1
# Cotton [9] = test: Preemergence Herbicidal Activity, Cotton; settings: Gossypium hirsutum, pre-emergence; for plant injury at 500 g/ha: 0.5 kg/ha
# Outline: as §1
# Cotton [10] = test: Postemergence Herbicidal Activity, Cotton; settings: Gossypium hirsutum, post-emergence; for plant injury at 500 g/ha: 0.5 kg/ha
# Outline: as §1
# Field Corn [11] = test: Preemergence Herbicidal Activity, Field Corn; settings: Zea mays, pre-emergence; for plant injury at 500 g/ha: 0.5 kg/ha
# Outline: as §2
# Field Bindweed [12] = test: Preemergence Herbicidal Activity, Field Bindweed; settings: pre-emergence; for pest or weed control at 500 g/ha: 0.5 kg/ha
# Outline: as §1
# Wheat [13] = test: Postemergence Herbicidal Activity, Wheat; settings: Triticum aestivum, post-emergence; for plant injury at 500 g/ha: 0.5 kg/ha
# Outline: as §2
# Velvetleaf [14] = test: Postemergence Herbicidal Activity, Velvetleaf; settings: Abutilon theophrasti, post-emergence; for pest or weed control at 500 g/ha: 0.5 kg/ha
# Outline: as §1
# Morningglory [15] = test: Postemergence Herbicidal Activity, Morningglory; settings: Ipomoea, post-emergence; for pest or weed control at 500 g/ha: 0.5 kg/ha
# Outline: as §1
# Green Foxtail [16] = test: Preemergence Herbicidal Activity, Green Foxtail; settings: Setaria viridis, pre-emergence; for pest or weed control at 500 g/ha: 0.5 kg/ha
# Outline: as §3
# Rice [17] = test: Postemergence Herbicidal Activity, Rice; settings: Oryza sativa, post-emergence; for plant injury at 500 g/ha: 0.5 kg/ha
# Outline: as §2
# Johnsongrass [18] = test: Postemergence Herbicidal Activity, Johnsongrass; settings: Sorghum halepense, post-emergence; for pest or weed control at 500 g/ha: 0.5 kg/ha
# Outline: as §3
# Field Bindweed [19] = test: Postemergence Herbicidal Activity, Field Bindweed; settings: post-emergence; for pest or weed control at 500 g/ha: 0.5 kg/ha
# Outline: as §1
# Field Corn [20] = test: Postemergence Herbicidal Activity, Field Corn; settings: Zea mays, post-emergence; for plant injury at 500 g/ha: 0.5 kg/ha
# Outline: as §2
# Green Foxtail [21] = test: Postemergence Herbicidal Activity, Green Foxtail; settings: Setaria viridis, post-emergence; for pest or weed control at 500 g/ha: 0.5 kg/ha
# Outline: as §3
# Soybean [22] = test: Preemergence Herbicidal Activity, Soybean; settings: Glycine max, pre-emergence; for plant injury at 500 g/ha: 0.5 kg/ha
# Outline: as §2
smiles,measurement,setting,value
"CCS(=O)(=O)N(c1cc(-n2nnn(CCCF)c2=O)c(F)cc1F)S(=O)(=O)CC [Compound 20, 1-(2,4-difluoro-5-[bis(N--ethylsulfonyl)amino]phenyl]-1,4-dihydro-4-(3-fluoropropyl)-5H--tetrazol-5-one]",pest or weed control at 500 g/ha,Morningglory [1],70%
same,plant injury at 500 g/ha,Soybean [2],30%
same,plant injury at 500 g/ha,Rice [3],70%
same,pest or weed control at 500 g/ha,Barnyardgrass [4],90%
same,plant injury at 500 g/ha,Wheat [5],30%
same,pest or weed control at 500 g/ha,Barnyardgrass [6],30%
same,pest or weed control at 500 g/ha,Johnsongrass [7],90%
same,pest or weed control at 500 g/ha,Velvetleaf [8],100%
same,plant injury at 500 g/ha,Cotton [9],90%
same,plant injury at 500 g/ha,Cotton [10],90%
same,plant injury at 500 g/ha,Field Corn [11],90%
same,pest or weed control at 500 g/ha,Field Bindweed [12],20%
same,plant injury at 500 g/ha,Wheat [13],50%
same,pest or weed control at 500 g/ha,Velvetleaf [14],100%
same,pest or weed control at 500 g/ha,Morningglory [15],90%
same,pest or weed control at 500 g/ha,Green Foxtail [16],95%
same,plant injury at 500 g/ha,Rice [17],20%
same,pest or weed control at 500 g/ha,Johnsongrass [18],30%
same,pest or weed control at 500 g/ha,Field Bindweed [19],30%
same,plant injury at 500 g/ha,Field Corn [20],20%
same,pest or weed control at 500 g/ha,Green Foxtail [21],40%
same,plant injury at 500 g/ha,Soybean [22],20%
"CCS(=O)(=O)N(c1cc(-n2nnn(CCCF)c2=O)c(F)cc1Br)S(=O)(=O)CC [Compound 22, 1-[4-bromo-2-fluoro-5-[bis(N--ehtylsulfonyl)amino]phenyl]-1,4-dihydro-4-(3-fluoropropyl)-5H--tetrazol-5-one]",pest or weed control at 1000 g/ha,Morningglory [1]; 1.0 kg/ha,100%
same,plant injury at 1000 g/ha,Soybean [2]; 1.0 kg/ha,95%
same,plant injury at 1000 g/ha,Rice [3]; 1.0 kg/ha,80%
same,pest or weed control at 1000 g/ha,Barnyardgrass [4]; 1.0 kg/ha,100%
same,plant injury at 1000 g/ha,Wheat [5]; 1.0 kg/ha,90%
same,pest or weed control at 1000 g/ha,Barnyardgrass [6]; 1.0 kg/ha,100%
same,pest or weed control at 1000 g/ha,Johnsongrass [7]; 1.0 kg/ha,100%
same,pest or weed control at 1000 g/ha,Velvetleaf [8]; 1.0 kg/ha,100%
same,plant injury at 1000 g/ha,Cotton [9]; 1.0 kg/ha,100%
same,plant injury at 1000 g/ha,Cotton [10]; 1.0 kg/ha,100%
same,plant injury at 1000 g/ha,Field Corn [11]; 1.0 kg/ha,95%
same,pest or weed control at 1000 g/ha,Field Bindweed [12]; 1.0 kg/ha,100%
same,plant injury at 1000 g/ha,Wheat [13]; 1.0 kg/ha,90%
same,pest or weed control at 1000 g/ha,Velvetleaf [14]; 1.0 kg/ha,100%
same,pest or weed control at 1000 g/ha,Morningglory [15]; 1.0 kg/ha,95%
same,pest or weed control at 1000 g/ha,Green Foxtail [16]; 1.0 kg/ha,100%
same,plant injury at 1000 g/ha,Rice [17]; 1.0 kg/ha,80%
same,pest or weed control at 1000 g/ha,Johnsongrass [18]; 1.0 kg/ha,100%
same,pest or weed control at 1000 g/ha,Field Bindweed [19]; 1.0 kg/ha,95%
same,plant injury at 1000 g/ha,Field Corn [20]; 1.0 kg/ha,100%
same,pest or weed control at 1000 g/ha,Green Foxtail [21]; 1.0 kg/ha,100%
same,plant injury at 1000 g/ha,Soybean [22]; 1.0 kg/ha,60%
CCCS(=O)(=O)N(c1cc(-n2nnn(CCCF)c2=O)c(F)cc1F)S(=O)(=O)CCC [Compound 25],pest or weed control at 500 g/ha,Morningglory [1],10%
same,plant injury at 500 g/ha,Soybean [2],20%
same,plant injury at 500 g/ha,Rice [3],20%
same,pest or weed control at 500 g/ha,Barnyardgrass [4],50%
same,plant injury at 500 g/ha,Wheat [5],20%
same,pest or weed control at 500 g/ha,Barnyardgrass [6],20%
same,pest or weed control at 500 g/ha,Johnsongrass [7],60%
same,pest or weed control at 500 g/ha,Velvetleaf [8],20%
same,plant injury at 500 g/ha,Cotton [9],10%
same,plant injury at 500 g/ha,Cotton [10],40%
same,plant injury at 500 g/ha,Field Corn [11],80%
same,pest or weed control at 500 g/ha,Field Bindweed [12],0%
same,plant injury at 500 g/ha,Wheat [13],20%
same,pest or weed control at 500 g/ha,Velvetleaf [14],80%
same,pest or weed control at 500 g/ha,Morningglory [15],30%
same,pest or weed control at 500 g/ha,Green Foxtail [16],10%
same,plant injury at 500 g/ha,Rice [17],20%
same,pest or weed control at 500 g/ha,Johnsongrass [18],20%
same,pest or weed control at 500 g/ha,Field Bindweed [19],40%
same,plant injury at 500 g/ha,Field Corn [20],60%
same,pest or weed control at 500 g/ha,Green Foxtail [21],30%
same,plant injury at 500 g/ha,Soybean [22],20%
